Source: article PMC9036659, “Boron-containing capsaicinoids” (RSC Advances, 2021)
Blank lines part the entries; values can stand above or below the molecule they belong to.

Tests used:
[1] = system: methicillin-resistant Staphylococcus aureus MRSA 310; experiment: Antimicrobial assay, MRSA (PrestoBlue fluorescence); type: cell-based
Method: (§1) The microorganisms (methicillin-resistant S. aureus MRSA 310, vancomycin-resistant E. faecium VRE 379, S. warneri (ATCC 17917), P. vulgaris (ATCC 12454), P. aeruginosa (ATCC 14210), and C. albicans (ATCC 14035)) were grown overnight on agar media. The following day the cultures were transferred into 0.9% saline water into a sterile glass tube. Using the McFarland reader, the turbidity was determined and further diluted into their respective media. The pure compounds were tested at seven different concentrations ranging from 2 to 128 μg mL^−1 in triplicate. Samples were plated into 96 well plates (10 μL in 20% DMSO) and then diluted pathogen (90 μL) was pipetted into the pre-prepared sample plates yielding 5 × 10^5 cfu mL^−1 with a final volume of 100 μL. Antibiotics that are active against specific pathogens were used as positive controls. The plates were incubated into a 37 °C incubator for 22 h. Growth of S. warneri. P. vulgaris, P. aeruginosa and C. albicans were measured by reading optical density (OD600), or in the case of slow growing microorganisms (MRSA and VRE), PrestoBlue was used to assess metabolic activity by measuring fluorescence (535–560)/(590–615) (excitation/emission) using a Thermo Scientific Varioskan Flash plate reader at time zero and then again after incubation of the plates for 22 h at 37 °C. After subtracting the time zero OD600 from the final reading, the percentages of microorganism survival relative to vehicle control wells were calculated. […]
(§2) Antimicrobial Assay Data Growth of S. warneri. P. vulgaris, P. aeruginosa and C. albicans were measured by reading optical density (OD600), or in the case of slow growing microorganisms (MRSA and VRE), PrestoBlue was used to assess metabolic activity by measuring fluorescence (535-560)⁄(590-615) (excitation/emission) using a Thermo Scientific Varioskan Flash plate reader at time zero and then again after incubation of the plates for 22 h at 37 °C. After subtracting the time zero OD600 from the final reading, the percentages of microorganism survival relative to vehicle control wells were calculated. […]

[2] = system: vancomycin-resistant Enterococcus faecium VRE 379; experiment: Antimicrobial assay, VRE (PrestoBlue fluorescence); type: cell-based
Method: as §1, §2

[3] = system: Staphylococcus warneri (ATCC 17917); experiment: Antimicrobial assay, S. warneri (OD600); type: cell-based
Method: as §1, §2

[4] = system: Proteus vulgaris (ATCC 12454); experiment: Antimicrobial assay, P. vulgaris (OD600); type: cell-based
Method: as §1, §2

[5] = system: Pseudomonas aeruginosa (ATCC 14210); experiment: Antimicrobial assay, P. aeruginosa (OD600); type: cell-based
Method: as §1, §2

[6] = system: Candida albicans (ATCC 14035); experiment: Antimicrobial assay, C. albicans (OD600); type: cell-based
Method: as §1, §2

[7] = system: green monkey kidney cells Vero (ATCC CCL-81); experiment: Cytotoxicity assay (Alamar blue), Vero; type: cell-based; details: for IC50: Chlorocebus sabaeus, Vero, read-out: IC50 Vero (normal cell line)
Method: (§3) The cells (human foreskin BJ fibroblast cells (ATCC CRL-2522), green monkey kidney cells Vero (ATCC CCL-81), human breast adenocarcinoma cells (ATCC HTB-26 MDA-MB 231), human breast adenocarcinoma cells (MCF7 ATCC HTB-22), and human colorectal carcinoma cells (HCT116 ATCC CCL-247)) were grown to 80% confluency, the cells were counted, diluted, and plated into treated 96-well cell culture plates. The BJ fibroblast and Vero cells were plated at a cell density of 10 000 cells per well and the HTB26, HCT116 and MCF7 cells were plated at cell density of 5000 cells per well in 90 μL of respective growth medium (without the addition of antibiotics) and incubated for 24 h to allow cells to adhere to the plates before treatment. Pure compounds were tested in triplicate in serial dilutions of seven concentrations ranging from 2 to 128 μg mL^−1 per well (final well volume of 100 μL, 1% DMSO per well). Each of the cell lines were incubated at 37 °C in a humidified atmosphere of 5% CO2; the BJ fibroblast and Vero cells for 24 h and the HTB-26, HCT116 and MCF7 cells for 72 h. Each plate contained four uninoculated positive controls, four untreated negative controls, and one column containing a concentration range for doxorubicin. Alamar blue was added, 24 h after the treatment, and fluorescence was monitored using a Cytation Gen 5 plate reader using 560 nm Ex/590 Em both at time zero and 4 h after Alamar blue addition. The inferred percentage of cell viability relative to vehicle control wells were calculated after subtracting the time zero emission 590 nm measurement from the final reading and the IC50 was determined. […]
(§4) Cytotoxicity Assay Data Alamar blue was added, 24 h after the treatment, and fluorescence was monitored using a Cytation Gen 5 plate reader using 560 nm Ex/590 Em both at time zero and 4 h after Alamar blue addition. The inferred percentage of cell viability relative to vehicle control wells were calculated after subtracting the time zero emission 590 nm measurement from the final reading and the IC50 was determined.

[8] = system: human foreskin BJ fibroblast cells (ATCC CRL-2522); experiment: Cytotoxicity assay (Alamar blue), BJ; type: cell-based; details: for IC50: Homo sapiens, Fibroblast, read-out: IC50 BJ (normal cell line)
Method: as §3, §4

[9] = system: human colorectal carcinoma cells (HCT116 ATCC CCL-247); experiment: Cytotoxicity assay (Alamar blue), HCT116; type: cell-based; details: for IC50: Homo sapiens, HCT-116, 72 h incubation, average ± SD, Inactive = inhibition above 300 μM, read-out: IC50 HCT (cancer cell line)
Method: as §3, §4

[10] = system: human breast adenocarcinoma cells (ATCC HTB-26 MDA-MB 231); experiment: Cytotoxicity assay (Alamar blue), HTB-26; type: cell-based; details: for IC50: Homo sapiens, HTB26, 72 h incubation, average ± SD, Inactive = inhibition above 300 μM, read-out: IC50 HTB (cancer cell line)
Method: as §3, §4

[11] = system: human breast adenocarcinoma cells (MCF7 ATCC HTB-22); experiment: Cytotoxicity assay (Alamar blue), MCF7; type: cell-based; details: for IC50: Homo sapiens, MCF7, read-out: IC50 MCF7 (cancer cell line)
Method: as §3, §4

MRSA = system: MRSA; parameters: method as in doi:10.1139/cjc-2018-0193; details: data collected in previous study; Inactive = inhibition above 400 μM; cited from earlier work
[12] = system: vancomycin-resistant Enterococcus; parameters: method as in doi:10.1139/cjc-2018-0193; details: data collected in previous study, Inactive = inhibition above 400 μM, cited from earlier work
[13] = 24 h incubation, average ± SD, Inactive = inhibition above 300 μM
[14] = 72 h incubation, average ± SD, Inactive = inhibition above 300 μM

SMILES: CCCCCCCCCCCCCCc1ccc(N(Cc2ccc(OC)c(OC)c2)C(=O)CCCCCCCCB2OC(C)(C)C(C)(C)O2)cc1 [Compound 34, N-(3,4-dimethoxybenzyl)-N-(4-tetradecylphenyl)-9-(4,4,5,5-tetramethyl-1,3,2-dioxaborolan-2-yl)nonamide]
antimicrobial activity against MRSA (in words) [1]: inactive
antimicrobial activity against VRE (in words) [2]: inactive
antimicrobial activity against S. warneri (in words) [3]: inactive
antimicrobial activity against P. vulgaris (in words) [4]: inactive
antimicrobial activity against P. aeruginosa (in words) [5]: inactive
antimicrobial activity against C. albicans (in words) [6]: inactive
cytotoxic activity against Vero (in words) [7]: inactive
cytotoxic activity against BJ (in words) [8]: inactive
cytotoxic activity against HCT116 (in words) [9]: inactive
cytotoxic activity against HTB-26 MDA-MB 231 (in words) [10]: inactive
cytotoxic activity against MCF7 (in words) [11]: inactive

SMILES: CCCCc1ccc(N(Cc2ccc(OC)c(OC)c2)C(=O)CCCCCCCCB2OC(C)(C)C(C)(C)O2)cc1 [Compound 33, N-(4-butylphenyl)-N-(3,4-dimethoxybenzyl)-9-(4,4,5,5-tetramethyl-1,3,2-dioxaborolan-2-yl)nonamide]
antimicrobial activity against MRSA (in words) [1]: inactive
antimicrobial activity against VRE (in words) [2]: inactive
antimicrobial activity against S. warneri (in words) [3]: inactive
antimicrobial activity against P. vulgaris (in words) [4]: inactive
antimicrobial activity against P. aeruginosa (in words) [5]: inactive
antimicrobial activity against C. albicans (in words) [6]: inactive
cytotoxic activity against Vero (in words) [7]: unselective cytotoxic effects
IC50 [7, 13]: 20.9 ± 1.2 µM
cytotoxic activity against BJ (in words) [8]: unselective cytotoxic effects
IC50 [8, 13]: 24.2 ± 0.2 µM
cytotoxic activity against HCT116 (in words) [9]: unselective cytotoxic effects
IC50 [9]: 20.3 ± 0.7 µM
cytotoxic activity against HTB-26 MDA-MB 231 (in words) [10]: unselective cytotoxic effects
IC50 [10]: 21.2 ± 3.5 µM
cytotoxic activity against MCF7 (in words) [11]: unselective cytotoxic effects
IC50 [11, 14]: 3.4 ± 2.2 µM

melting point: 31.5 to 33.8 °C
SMILES: CCCCCC(=O)N(Cc1ccc(OC)c(OC)c1)c1ccccc1 [Compound 21, N-(3,4-dimethoxyphenylmethyl)-N-(phenyl)-hexanamide]

SMILES: COc1cc(CNC(=O)CCCCB2OC(C)(C)C(C)(C)O2)ccc1OCc1ccccc1 [Compound 8a]
IC50 (MRSA): 107 µM
MRSA MIC90 (MRSA): Inactive
VRE IC50 [12]: Inactive
VRE MIC90 [12]: Inactive

melting point: 51.5 to 53.5 °C
SMILES: CCCCCC(=O)N(Cc1ccc(OC)c(OC)c1)c1ccc(B2OC(C)(C)C(C)(C)O2)cc1 [Compound 23, N-(3,4-dimethoxyphenylmethyl)-N-[4-(4,4,5,5-tetramethyl-1,3,2-dioxaborolan-2-yl)phenyl]-hexanamide]
antimicrobial activity against MRSA (in words) [1]: inactive
antimicrobial activity against VRE (in words) [2]: inactive
antimicrobial activity against S. warneri (in words) [3]: inactive
antimicrobial activity against P. vulgaris (in words) [4]: inactive
antimicrobial activity against P. aeruginosa (in words) [5]: inactive
antimicrobial activity against C. albicans (in words) [6]: inactive
IC50 Vero (normal cell line) [7, 13]: Inactive
IC50 BJ (normal cell line) [8, 13]: Inactive
cytotoxic activity against HCT116 (in words) [9]: selective but low to moderate activity
IC50 [9]: 118 ± 4.9 µM
cytotoxic activity against HTB-26 MDA-MB 231 (in words) [10]: selective but low to moderate activity
IC50 [10]: 85.8 ± 7.1 µM
cytotoxic activity against MCF7 (in words) [11]: selective but low to moderate activity
IC50 MCF7 (cancer cell line) [11, 14]: Inactive

SMILES: COc1cc(CNC(=O)CCCCCCCCCCB2OC(C)(C)C(C)(C)O2)ccc1OCc1ccccc1 [Compound 8b]
IC50 (MRSA): 245 µM
MRSA MIC90 (MRSA): Inactive
VRE MIC90 [12]: Inactive
IC50 ([12]; read-out: VRE IC50): 277 µM

melting point: 58.1 to 59.8 °C
SMILES: CCCCCCCCCC(=O)N(Cc1ccc(OC)c(OC)c1)c1ccc(B2OC(C)(C)C(C)(C)O2)cc1 [Compound 24, N-(3,4-dimethoxyphenylmethyl)-N-[4-(4,4,5,5-tetramethyl-1,3,2-dioxaborolan-2-yl)phenyl]-decanamide]
antimicrobial activity against MRSA (in words) [1]: inactive
antimicrobial activity against VRE (in words) [2]: inactive
antimicrobial activity against S. warneri (in words) [3]: inactive
antimicrobial activity against P. vulgaris (in words) [4]: inactive
antimicrobial activity against P. aeruginosa (in words) [5]: inactive
antimicrobial activity against C. albicans (in words) [6]: inactive
cytotoxic activity against Vero (in words) [7]: unselective cytotoxic effects
IC50 [7, 13]: 26.9 ± 4.4 µM
cytotoxic activity against BJ (in words) [8]: unselective cytotoxic effects
IC50 [8, 13]: 36.1 ± 0.8 µM
cytotoxic activity against HCT116 (in words) [9]: unselective cytotoxic effects
IC50 [9]: 33.8 ± 2.1 µM
cytotoxic activity against HTB-26 MDA-MB 231 (in words) [10]: unselective cytotoxic effects
IC50 [10]: 25.2 ± 1.3 µM
cytotoxic activity against MCF7 (in words) [11]: unselective cytotoxic effects
IC50 [11, 14]: 24.1 ± 3.8 µM
